Results reported in patent US20230292776A1, “GAS PHASE TREATMENT OF PRODUCE” (priority 2022, published 2023).

Tests used:
[1] = system: Penicillium digitatum (Pd); experiment: Antifungal activity of vapor against Penicillium digitatum (Pd) in wounded, infected mandarins; type: in vivo; details: after 6 days
avocados = experiment: Durometer shore (firmness, ripening) of treated avocados; type: in vivo, avocado; details: Example 21; Cg-infected avocados; AITC 125 μL 30 minutes; prochloraz 0.1 g/L dip; after 5 days
Experimental: (§1) Example 9. The antifungal activity of a range of AITC and carvacrol vapor exposure times was tested against Cg in avocados. To measure the effect of the various treatments on ripening, durometer shore was taken after 7 days of incubation at ambient temperature and high humidity. All samples were wounded by removing the stem and infected by dispensing 1000 Cg spores suspended in 10 μL of water in the wound. The test groups consisted of avocados that were: infected and left untreated on the benchtop; infected and left untreated under a fume hood; exposed to the vapor of 3 mL of AITC in a Petri dish for 24 hours, 48 hours, and 72 hours; and exposed to the vapor of 3 mL of carvacrol in a Petri dish for 72 hours. FIG. 11 quantifies the infection results. […] All exposure times to AITC vapor reduced the incidence of Cg mold compared to the untreated samples. A 24 hour AITC exposure reduced the incidence of Cg mold by 90%. A 48 hour AITC exposure reduced the incidence of Cg mold by 97%. A 72 hour AITC exposure reduced the incidence of Cg mold by 83%.
(§2) Example 10. The antifungal activity of a range of AITC vapor exposure times were tested against Cg in avocados. To measure the effect of the various treatments on ripening, durometer shore was taken after 6 days of incubation at ambient temperature and high humidity. All samples were wounded by removing the stem and infected by dispensing 1000 Cg spores suspended in 10 μL of water in each wound. The test groups consisted of avocados that were: infected and left untreated on the benchtop; infected and left untreated in a fume hood; exposed to the vapor of 3 mL of AITC in a Petri dish for 24 hours, 48 hours, and 72 hours. FIG. 13 quantifies the infection results. […] All exposure times to AITC vapor reduced the incidence of Cg mold compared to the untreated samples.
Example 21. The antifungal activity of avocados exposed to AITC vapor and prochloraz was tested against Cg in avocados. To measure the effect of the various treatments on ripening, durometer shore was taken after 5 days of incubation at ambient temperature (about 20° C. to about 25° C.) and high humidity (about 88% relative humidity to about 93% relative humidity). All samples were wounded by removing the stem and infected by dispensing 1000 Cg spores suspended in 10 μL of water in the wound. Exposure to vapor was done by placing the avocados in an airtight container, dispensing AITC onto Whatman filter paper discs, suspending the discs in front of a battery-powered fan, closing the container and incubating the avocados for 30 minutes. After vapor exposure, the avocados were left at ambient temperature, high humidity, and assessed for Cg mold on day 5. Treatment groups consisted of avocados that were: exposed for 30 minutes to the vapor of 125 μL of AITC disposed on a filter paper disc; dipped in a solution of 0.1 g/L of prochloraz and placed to dry on a rack in front of a fan for 30 min; infected and left untreated; and uninfected and untreated. […] To prepare the 0.1 g/L of prochloraz, 10 mg of prochloraz was mixed with 10 mL of ethanol and 90 mL of water. […] A 24 hour AITC exposure reduced the incidence of Cg mold by 90%. […] The mean shore value for the untreated avocados was 28.8 (standard deviation (SD)=10.8). The mean shore value for the infected avocados was 47.3 (SD=11.8). The mean shore value of the positive control, prochloraz treated avocados was 44.3 (SD=14.7). The mean shore value of the AITC treated avocados was 61.1 (SD=10.5).
Durometer Shore Measurement: A Fruit Hardness Tester— HPE III Fff w/Sphere Ø 5.0 mm Test Anvil is used for the measurements. The Operating Procedure is as follows: • 1) At room temperature and 1 atm pressure, switch on the measuring device and press the hull or sleeve against the specimen so that the contact surface of the pressure plate rests on the fruit. […]

[2] = system: Colletotrichum gloeosporioides (Cg); experiment: Antifungal activity against Colletotrichum gloeosporioides (Cg) in wounded, infected avocados; type: in vivo; details: Example 9; avocados; vapor of 3 mL, 72 hour exposure
Experimental: Example 7. The antifungal activity of AITC and DADS vapor against Colletotrichum gloeosporioides (Cg) was tested in avocados. All test pieces were wounded by removing the stem and infected by dispensing 1000 Cg spores suspended in 10 μL of water into the wound. The test groups consisted of avocados that were: untreated and uninfected; untreated and infected; treated by dipping in a solution of 0.1 g/L of prochloraz; exposed to the vapor of 3 mL of AITC disposed in a Petri dish; and exposed to the vapor of 3 mL of DADS disposed in a Petri dish. FIG. 9 quantifies the infection results. AITC vapor reduced the incidence of Cg mold by 97% compared to the untreated test group and 70% compared to the prochloraz treated test group. DADS vapor reduced the incidence of Cg mold by 60% compared to the untreated test group.
Example 8. The antifungal activity of a range of DADS vapor exposure times was tested against Cg in avocados. All test pieces were wounded by removing the stem and infected by dispensing 1000 Cg spores suspended in 10 μL of water into the wound. The test groups consisted of avocados that were: infected and untreated; and exposed to the vapor of 3 mL of DADS in a Petri dish for 24 hours, 48 hours, and 72 hours. FIG. 10 quantifies the infection results. Test group exposed to DADS vapor at all exposure times reduced the incidence of Cg mold compared to the untreated test group. A 24 hour DADS exposure reduced the incidence of Cg mold by 8%. A 48 hour DADS exposure reduced the incidence of Cg mold by 25%. A 72 hour DADS exposure reduced the incidence of Cg mold by 57%.
as §1, §2
Example 21. The antifungal activity of avocados exposed to AITC vapor and prochloraz was tested against Cg in avocados. To measure the effect of the various treatments on ripening, durometer shore was taken after 5 days of incubation at ambient temperature (about 20° C. to about 25° C.) and high humidity (about 88% relative humidity to about 93% relative humidity). All samples were wounded by removing the stem and infected by dispensing 1000 Cg spores suspended in 10 μL of water in the wound. […]

For `C=CCc1ccc(O)c(OC)c1` [eugenol], the “performance against Pd versus the untreated samples” value ([1]; Example 19, mandarins, 62.5 μL AITC and/or 125 μL of all other compounds, 30 minutes) was “performed better than the untreated samples”.

With `CCCN(CCOc1c(Cl)cc(Cl)cc1Cl)C(=O)n1ccnc1` [prochloraz, reference compound] the mean shore value (avocados) was 44.3 (SD=14.7).

For `C=CCOC(Cn1ccnc1)c1ccc(Cl)cc1Cl` (stereo not shown) [imazalil, reference compound], the infected mandarins ([1]; Example 6, treated with 1 g/L, fruit of poor quality with latent infection) was 83.3%.

With `Cc1ccc(C(C)C)cc1O` [carvacrol] the “reduction of the incidence of Cg mold” value [2] was “did not reduce the incidence of Cg mold”.
